Data published in article PMC3304435 (Biochemistry, 2012).

Target: Escherichia coli RtcB ligase (Escherichia coli, UniProt P46850)
Type: biochemical
Conditions: Mn2+; 3′-P / 5′-OH tRNA-mimic RNA substrate; estimated upper limit

Escherichia coli RtcB ligase, sequence (P46850 whole entry): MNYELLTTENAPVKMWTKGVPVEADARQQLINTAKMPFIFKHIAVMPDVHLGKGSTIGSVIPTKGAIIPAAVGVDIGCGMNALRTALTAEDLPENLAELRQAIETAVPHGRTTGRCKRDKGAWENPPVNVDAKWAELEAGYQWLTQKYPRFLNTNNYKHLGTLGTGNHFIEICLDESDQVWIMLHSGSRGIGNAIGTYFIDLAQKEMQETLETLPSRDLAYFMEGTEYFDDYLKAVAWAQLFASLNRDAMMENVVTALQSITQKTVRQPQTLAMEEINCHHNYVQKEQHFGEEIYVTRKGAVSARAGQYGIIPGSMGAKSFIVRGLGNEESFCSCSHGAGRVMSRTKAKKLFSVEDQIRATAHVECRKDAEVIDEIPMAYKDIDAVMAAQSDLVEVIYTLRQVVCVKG

In the case of `Nc1nc2c(ncn2[C@@H]2O[C@H](COP(=O)(O)OP(=O)(O)OP(=O)(O)O)[C@@H](O)[C@H]2O)c(=O)[nH]1` [GTP], the Km is reported as under 16 µM.
